From US5939437A, “CCK and gastrin receptor ligands” (James Black Foundation Limited, priority 1994, dated 1999)

Key:
Gastrin = target: T1, Gastrin (Rattus norvegicus, UniProt P30553); assay: gastrin antagonist activity in an immature rat stomach assay (pentagastrin-stimulated acid secretion, isolated stomach); details: cumulative pentagastrin dose-response curves, 60 min after drug, read-out: Gastrin pKB (converted)
T1 construct: The stomach was excised and flushed with ca. 1 ml unbuffered physiological saline solution; from tissue; host or cells: isolated whole stomach of immature rats (33-50 g, ca. 21 days old)
T1 sequence (P30553 1-452): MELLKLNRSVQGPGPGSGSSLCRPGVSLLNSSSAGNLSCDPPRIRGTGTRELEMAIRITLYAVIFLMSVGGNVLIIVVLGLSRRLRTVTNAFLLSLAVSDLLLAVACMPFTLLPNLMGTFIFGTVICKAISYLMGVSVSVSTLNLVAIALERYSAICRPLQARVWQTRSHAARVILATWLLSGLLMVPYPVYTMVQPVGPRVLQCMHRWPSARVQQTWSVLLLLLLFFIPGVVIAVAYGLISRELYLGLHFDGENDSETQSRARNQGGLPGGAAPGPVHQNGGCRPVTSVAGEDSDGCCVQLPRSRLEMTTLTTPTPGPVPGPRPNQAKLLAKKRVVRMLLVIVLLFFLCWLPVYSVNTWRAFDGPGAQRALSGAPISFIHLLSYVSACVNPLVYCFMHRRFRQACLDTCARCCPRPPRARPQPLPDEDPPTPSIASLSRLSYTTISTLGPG
Experimental: The compounds of the examples were also tested for gastrin antagonist activity in an immature rat stomach assay. The procedure was follows:
The oesophagus of immature rats (33-50 g, ca. 21 days old) was ligated at the level of the cardiac sphincter and the duodenal sphincter was cannulated. The stomach was excised and flushed with ca. 1 ml unbuffered physiological saline solution. The fundus was punctured and cannulated. A further 4-5 ml of unbuffered solution was flushed through the stomach to ensure the preparation was not leaking. The stomach was lowered into a jacketed organ bath containing 40 ml of buffered solution containing 3×10^-8 M5methylfurmethide, maintained at 37° and gassed vigorously with 95% O2 /5% CO2. The stomach was continuously perfused at a rate of 1 ml min^-1 with unbuffered solution gassed with 100% O2 with the perfusate passing over an internally referenced pH-electrode fixed 12 cm above the stomach.
After 120 min of stabilisation the drugs were added directly to the serosal solution in the organ bath and after a further 60 min cumulative pentagastrin dose-response curves were started. Changes in acid secretion were monitored and the curves analysed according to Black et. al., Br. J. Pharmacol., 1985, 86, 581.

CCKB = target: T2, CCKB (Mus musculus, UniProt P56481); assay: radioligand binding assay at the CCKB (CCK8 [sic]) receptor in mouse cortical membranes; details: [125I]-CCK8S 200 pM, 150 min at 21±3° C., read-out: CCKB pKi (converted)
T2 construct: The cortex was dissected, weighed and homogenised in 40 ml ice-cold buffer; from tissue; host or cells: cerebral cortex membranes of male CD1 mice (Charles River)
T2 sequence (P56481 1-453): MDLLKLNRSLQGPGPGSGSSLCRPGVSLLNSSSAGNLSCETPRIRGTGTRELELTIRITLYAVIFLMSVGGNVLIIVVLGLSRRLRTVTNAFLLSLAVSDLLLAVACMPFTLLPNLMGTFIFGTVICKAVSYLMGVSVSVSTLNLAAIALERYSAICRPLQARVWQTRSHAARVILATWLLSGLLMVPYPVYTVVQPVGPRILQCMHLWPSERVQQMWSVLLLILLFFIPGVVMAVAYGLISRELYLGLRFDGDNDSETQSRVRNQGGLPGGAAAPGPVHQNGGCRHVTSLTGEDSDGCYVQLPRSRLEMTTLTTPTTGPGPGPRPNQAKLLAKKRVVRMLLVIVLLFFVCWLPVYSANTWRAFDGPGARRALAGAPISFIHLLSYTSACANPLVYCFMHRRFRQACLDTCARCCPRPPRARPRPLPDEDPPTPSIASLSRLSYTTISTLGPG
Experimental: The compounds of the examples were tested for binding at the CCK8 receptor in mouse cortical membranes by means of a radioligand binding assay. The procedure was as follows: The whole brains from male mice (CD1 22-25 g; Charles River) were removed and placed in ice-cold buffer (pH7.2@21±3° C.) of the following composition (mM); 10 HEPES, 130 NaCl, 4.7 KCl, 5 MgCl2, 1 EDTA and containing 0.25 g.1^-1 bacitracin. The cortex was dissected, weighed and homogenised in 40 ml ice-cold buffer using a Teflon-in-glass homogeniser. The homogenate was centrifuged at 39,800 g for 20 min at 4° C., the supernatant discarded and the pellet resuspended by homogenisation in fresh buffer. The homogenate was recentrifuged (39,800 g; 20 min@4° C.) and the final pellet was resuspended in HEPES buffer to give a tissue concentration of 2 mg.ml^-1 (original wet weight). The membranes ([…]) were incubated for 150 min at 21±3° C. in a final volume of 0.5 ml with HEPES buffer containing [^25 I]-CCK8S (0.05 ml; 200 pM NEN 2200 Ci.mmol^-1) and competing compound. Total and non-specific binding of [^125 I]-CCK8S were defined using 0.05 ml of buffer and 0.05 ml of […] L-365,260, respectively. The assay was terminated by rapid filtration through pre-soaked Whatman GF/B 35 filters using a Brandell Cell harvester. The filters were washed (3×3 ml) with ice-cold 5 mM Tris-HCl (pH7.4@4° C.) and bound radioactivity determined by counting (1 min.) in a gamma-counter.

CCKA = target: T3, CCKA (Cavia porcellus, UniProt Q63931); assay: CCKA binding assay (guinea-pig pancreas membranes); details: [125I]-CCK8(S) 200 pM, 0.375 μM PD134,308 present, 150 minutes at 21±3° C., read-out: CCKA pKi (converted)
T3 construct: The pancreatata were homogenised in 40 ml ice-cold HEPES buffer; from tissue; host or cells: pancreas membranes of male Dunkin Hartley guinea-pigs
T3 sequence (Q63931 1-430): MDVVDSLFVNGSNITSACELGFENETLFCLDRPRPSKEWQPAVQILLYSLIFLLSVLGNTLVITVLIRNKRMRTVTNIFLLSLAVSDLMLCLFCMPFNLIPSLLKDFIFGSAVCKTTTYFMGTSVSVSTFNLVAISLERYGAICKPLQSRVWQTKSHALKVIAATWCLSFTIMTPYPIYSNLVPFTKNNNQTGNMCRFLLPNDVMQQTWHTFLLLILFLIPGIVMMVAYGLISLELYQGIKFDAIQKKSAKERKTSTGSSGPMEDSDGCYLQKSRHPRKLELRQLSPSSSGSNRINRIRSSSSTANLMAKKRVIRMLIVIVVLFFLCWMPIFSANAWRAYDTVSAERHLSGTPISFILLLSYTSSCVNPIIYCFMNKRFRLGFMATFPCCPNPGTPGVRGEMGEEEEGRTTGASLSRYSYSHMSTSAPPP
Experimental: The compounds of the examples were also tested in a CCKA binding assay as follows:
The pancreatata were removed from male guinea-pigs (200-300 g; Dunkin Hartley) and placed in ice-cold HEPES buffer (pH 7.2@21 ±3° C.). The pancreatata were homogenised in 40 ml ice-cold HEPES buffer using a polytron (Brinkman, PT10, setting 10) 4×1 second. The homogenate was centrifuged at 39,800 g for 15 min at 4° C. The supernatant was discarded and the pellet re-suspended using a Teflon-in-glass homogeniser in 20 volumes of fresh buffer and re-centrifuged as above. The final pellet was re-suspended using a Teflon-in-glass homogeniser to a tissue concentration of 1 mg.ml^-1 (original wet weight), and filtered through 500 μm pore-size Nytex mesh.
The membranes (400 μl; containing 0.375 μM PD134,308) are incubated for 150 minutes at 21±3° C. in a final volume of 0.5 ml with HEPES buffer containing [^125 I]-CCK8 (S) (50 μl; 200 pM) and competing compound. Total and non-specific binding of [^125 I]-CCK^8 (S) are defined using 50 μl of buffer and 50 μl of 100 nM L-364,718respectively. The assay is terminated by rapid filtration through pre-soaked Whatman GF/B filters using a Brandell Cell Harvester. The filters were washed (3×3 ml) with ice-cold 50 mM Tris HCl (pH 7.4 at 4° C. and bound radioactivity is determined by counting (1 min) in a gamma counter.

SMILES	Kb (Gastrin) [nM]	Ki (CCKB) [nM]	Ki (CCKA) [nM]
Nc1ccc(C(=O)N[C@@H](Cc2ccccc2)C(=O)Nc2cc(C(=O)O)cc(C(=O)O)c2)c(C(=O)NCC23CC4CC(CC(C4)C2)C3)c1 [Example 16, 1-(1S-(3,5-dicarboxyphenylamino-carbonyl)-2-phenylethylaminocarbonyl)-2-(1-adamantanemethyl-25 aminocarbonyl)-4-aminobenzene]	63.1	200	3980
Nc1ccc(C(=O)NCC23CC4CC(CC(C4)C2)C3)c(C(=O)N[C@@H](Cc2ccccc2)C(=O)Nc2cc(C(=O)O)cc(C(=O)O)c2)c1 [Example 17, 1-(1S-(3,5-dicarboxyphenylamino-carbonyl)-2-phenylethylaminocarbonyl)-2-(1-adamantanemethyl-aminocarbonyl)-5-aminobenzene]	20	50.1	12600
COc1ccc(C(=O)NCC23CC4CC(CC(C4)C2)C3)c(C(=O)N[C@@H](Cc2ccccc2)C(=O)Nc2cc(C(=O)O)cc(C(=O)O)c2)c1 [Example 19, 1-(1S-(3,5-dicarboxyphenylamino-carbonyl)-2-phenylethylaminocarbonyl)-2-(1-adamantanemethyl-aminocarbonyl)-5-methoxybenzene]	12.6	158	2000
O=C(O)c1cc(NC(=O)[C@H](Cc2ccccc2)NC(=O)c2cccc3c2C(=O)N(CC24CC5CC(CC(C5)C2)C4)C3)cc(C(=O)O)c1 [Example 26, 7-(1S-(3,5-dicarboxyphenylamino-carbonyl)-2-phenylethylaminocarbonyl)-2-(1-adamantanemethyl)indol-1-one]	63.1	100	3160
